In ChEMBL document CHEMBL2424632, “Substituted 2-hydroxy-N-(arylalkyl)benzamides induce apoptosis in cancer cell lines” (Eur J Med Chem, 2013):

What follows are compounds tested on K562 (assay: Cytotoxicity against human K562 cells after 72 hrs by calcein-AM assay). Details: K562, 72 h.
Assay type: functional, cell-based

SMILES	IC50
C[C@H](NC(=O)c1cc(Cl)ccc1O)C(=O)Nc1cccc(Cl)c1	> 10 µM
O=C(N[C@H](Cc1ccccc1)C(=O)Nc1ccc(Cl)c(Cl)c1)c1cc(Cl)ccc1O	> 10 µM
CC(C)[C@H](NC(=O)c1cc(Cl)ccc1O)C(=O)Nc1ccc(Cl)cc1	> 20 µM
CC(C)[C@H](NC(=O)c1ccc(Cl)cc1O)C(=O)Nc1ccc(Cl)cc1	> 10 µM
C[C@H](NC(=O)c1ccc(Cl)cc1O)C(=O)Nc1ccc(C(F)(F)F)cc1	> 12.5 µM
C[C@H](NC(=O)c1cc(Cl)ccc1O)C(=O)Nc1ccc(C(F)(F)F)cc1	> 12.5 µM
C[C@H](NC(=O)c1ccc(Cl)cc1O)C(=O)Nc1ccc(Cl)c(Cl)c1	> 12.5 µM
O=C(N[C@H](Cc1ccccc1)C(=O)Nc1cccc(Cl)c1)c1cc(Cl)ccc1O	> 20 µM
O=C(N[C@@H](Cc1ccccc1)C(=O)Nc1ccc(Cl)cc1)c1ccc(Cl)cc1O	> 10 µM
O=C(CNC(=O)c1cc(Cl)ccc1O)Nc1cccc(Cl)c1	> 10 µM
Cc1ccc(NC(=O)[C@H](C)NC(=O)c2cc(Cl)ccc2O)cc1	> 10 µM
CC(C)[C@H](NC(=O)c1cc(Cl)ccc1O)C(=O)Nc1ccc(Cl)c(Cl)c1	> 10 µM
O=C(CNC(=O)c1cc(Cl)ccc1O)Nc1ccc(Cl)c(Cl)c1	> 20 µM
CC(C)[C@H](NC(=O)c1ccc(Cl)cc1O)C(=O)Nc1ccc(Br)cc1	> 10 µM
O=C(N[C@@H](Cc1ccccc1)C(=O)Nc1ccc(Cl)c(Cl)c1)c1cc(Cl)ccc1O	> 10 µM
CC(C)[C@H](NC(=O)c1cc(Cl)ccc1O)C(=O)Nc1ccccc1	> 10 µM

What follows are compounds tested on MCF7 (assay: Cytotoxicity against human MCF7 cells after 72 hrs by calcein-AM assay). Details: MCF7, 72 h.
Assay type: functional, cell-based

SMILES	IC50
C[C@H](NC(=O)c1cc(Cl)ccc1O)C(=O)Nc1cccc(Cl)c1	> 10 µM
O=C(N[C@H](Cc1ccccc1)C(=O)Nc1ccc(Cl)c(Cl)c1)c1cc(Cl)ccc1O	> 10 µM
CC(C)[C@H](NC(=O)c1cc(Cl)ccc1O)C(=O)Nc1ccc(Cl)cc1	> 10 µM
CC(C)[C@H](NC(=O)c1ccc(Cl)cc1O)C(=O)Nc1ccc(Cl)cc1	> 10 µM
C[C@H](NC(=O)c1ccc(Cl)cc1O)C(=O)Nc1ccc(C(F)(F)F)cc1	> 12.5 µM
C[C@H](NC(=O)c1cc(Cl)ccc1O)C(=O)Nc1ccc(C(F)(F)F)cc1	> 12.5 µM
C[C@H](NC(=O)c1ccc(Cl)cc1O)C(=O)Nc1ccc(Cl)c(Cl)c1	> 12.5 µM
O=C(N[C@H](Cc1ccccc1)C(=O)Nc1cccc(Cl)c1)c1cc(Cl)ccc1O	18.4 µM
O=C(N[C@@H](Cc1ccccc1)C(=O)Nc1ccc(Cl)cc1)c1ccc(Cl)cc1O	9.1 µM
O=C(CNC(=O)c1cc(Cl)ccc1O)Nc1cccc(Cl)c1	> 10 µM
Cc1ccc(NC(=O)[C@H](C)NC(=O)c2cc(Cl)ccc2O)cc1	> 10 µM
CC(C)[C@H](NC(=O)c1cc(Cl)ccc1O)C(=O)Nc1ccc(Cl)c(Cl)c1	> 10 µM
O=C(CNC(=O)c1cc(Cl)ccc1O)Nc1ccc(Cl)c(Cl)c1	> 20 µM
CC[C@H](CO)Nc1nc(NCc2ccccc2)c2ncn(C(C)C)c2n1 [SELICICLIB]	12.3 µM
CC(C)[C@H](NC(=O)c1ccc(Cl)cc1O)C(=O)Nc1ccc(Br)cc1	> 10 µM
O=C(N[C@@H](Cc1ccccc1)C(=O)Nc1ccc(Cl)c(Cl)c1)c1cc(Cl)ccc1O	> 10 µM
CC(C)[C@H](NC(=O)c1cc(Cl)ccc1O)C(=O)Nc1ccccc1	> 10 µM
